# US5659048A, “Chiral [[(2-bromoethyl)-amino]methyl]-2-nitro-1H-imidazol-1-ethanol and related compounds” (priority 1995, dated 1997)
# How the values were obtained:
# B6 C3 F1 mice = assay: Mouse Toxicity Studies (14-day lethality, LD10 by probit analysis); type: in vivo
# Method: B6 C3 F1 mice were treated with varying doses of test agent by either intraperitoneal, intravenous, or oral administration. […] The maximum tolerated dose was established as the dose equal to or less than the LD10 as determined from a probit analysis.
# KHT fibrosarcoma = assay: Radiosensitizing efficacy in mice: excision assay, clonogenic survival of KHT fibrosarcomas; type: in vivo, B6 C3 F1 mice; conditions: 250 mg/kg IP, 30 min before 10 Gray whole body irradiation
# Method: Clonogenic survival of KHT fibrosarcomas was determined in assays employing B6 C3 F1 mice. Tumors were implanted subcutaneously by trocar. Nine days postimplantation, when tumors ranged from 200 to 400 mg in size, mice were treated IP with a range of drug doses including the maximum tolerated dose of the test agent. Thirty minutes later mice received whole body irradiation at a dose of 10 Gray, delivered at a rate of 2 Gray/minute with a 320 kV x-ray machine. Twenty-four hours after treatment, animals were sacrificed, and tumors were excised. Tumors were enzymatically digested to give single cell suspensions prior to plating for cell survival by clonogenic assay.
# SCC7 carcinoma = assay: Radiosensitizing efficacy in mice: tumor growth delay, SCC7 carcinoma; type: in vivo, B6 C3 F1 mice; conditions: IP at maximum tolerated dose every 12 hours, 30 min before 2.5 Gray, 8 fractions
# Method: Tumor growth delay was assessed in B6 C3 F1 mice implanted IM with 5×10^5 SCC7 carcinoma tumor cells. On Days 10 through 13 post tumor implantation, mice were treated every 12 hours with the maximum tolerated dose of test agent (determined from a 10-day multiple treatment schedule). Thirty minutes later, mice were irradiated at the tumor site with a 2.5 Gray dose of x-rays. Upon completion of this 8 fraction protocol, tumor growth was monitored daily.
# [1] = Emesis Studies in beagle dogs; type: in vivo; conditions: dog, in vivo; IV, 10-minute infusion, 6-hour postdosing scoring; threshold dose at which 50% of animals exhibited emetic response; read-out: Emesis (Dogs) ED50
# Method: (§1) Beagle dogs (approximately 10 kg body weight) were treated intravenously with a 10-minute infusion of 20 mL of the test compound prepared in sodium lactate buffer, pH 4.0. Dogs were scored over a 6-hour postdosing period for both the number of emetic episodes and the relative volume. Antiemetic therapy consisted of a 5-minute infusion of ondansetron, administered at a dose of 0.3 mg/kg 30 minutes prior to treatment with the nitroimidazole.
# beagle dogs = assay: Emesis Studies in beagle dogs; type: in vivo; conditions: dogs, IV; result in words
# Method: as §1
SMILES,LD10 (B6 C3 F1 mice; IP) [mg/kg],LD10 (B6 C3 F1 mice; IV) [mg/kg],LD10 (B6 C3 F1 mice; PO) [mg/kg],"Excision (250 mg/kg), % control (KHT fibrosarcoma) [% control]",Growth Delay Fold Enhancement (SCC7 carcinoma) [Fold],TD50 at 6 h [1] [mg/kg],Emesis relative to (S) isomer or racemic mixture (beagle dogs)
"Br.O=[N+]([O-])c1nccn1C[C@H](O)CNCCBr [(R), (R)-(+)-α-[[(2-Bromoethyl)amino]methyl]-2-nitro-1H-imidazole-1-ethanol, monohydrobromide]",850,900,1100,11,2.1,12,significantly less emesis than the (S) isomer or the mixture
"Br.O=[N+]([O-])c1nccn1C[C@@H](O)CNCCBr [(S), (S)-(-)-α-[[(2-Bromoethyl)amino]methyl]-2-nitro-1H-imidazole-1-ethanol, monohydrobromide]",850,900,1100,11,1.8,4,–
